Test results taken from PubChem BioAssay (NCI).
≈ marks a conversion by molar mass, not a printed value.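 Where inhibition never reached the appropriate level, the endpoint shown equals the highest concentration tested. Otherwise, values were interpolated linearly from a five-concentration, 48-hour dose response in 96-well plates. GI50 is the concentration that inhibits growth by half. At the TGI there is no net growth.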

How the values were obtained:
Assay in all cases: NCI anticancer screen, dose series, 48 h
M14 melanoma = test system: M14 melanoma
NCI-H460 lung = test system: NCI-H460 lung
OVCAR-4 ovarian = test system: OVCAR-4 ovarian
CAKI-1 renal = test system: CAKI-1 renal
HL-60(TB) leukemia = test system: HL-60(TB) leukemia
IGROV1 ovarian = test system: IGROV1 ovarian
TK-10 renal = test system: TK-10 renal
EKVX NSCLC = test system: EKVX NSCLC
HT29 colon = test system: HT29 colon
SN12C renal = test system: SN12C renal

SMILES	TGI (M14 melanoma) [µM]	TGI (NCI-H460 lung)	TGI (OVCAR-4 ovarian)	TGI (CAKI-1 renal)	TGI (HL-60(TB) leukemia)	TGI (IGROV1 ovarian) [µM]	TGI (TK-10 renal) [µM]	TGI (EKVX NSCLC)	TGI (HT29 colon)	TGI (SN12C renal)	GI50 (NCI-H460 lung) [µg/mL]	GI50 (OVCAR-4 ovarian)	GI50 (CAKI-1 renal)	GI50 (EKVX NSCLC)	GI50 (HT29 colon)	GI50 (HL-60(TB) leukemia) [µM]	GI50 (TK-10 renal) [µM]
Cc1ccc2c(c1)CC1(Cc3cc(C)ccc3C1=O)C2=O	> 100	> 100 µM	> 100 µM	> 100 µM	> 100 µM	> 100	> 100	> 100 µM	> 100 µM								
CCn1c(=O)c2nc(SC)sc2n(-c2ccccc2)c1=S	> 100	> 100 µM	> 100 µM		19.9 µM	> 100	> 100	> 100 µM	> 100 µM	> 100 µM							
COc1cc2c(cc1C)NC(=O)/C2=C/c1c(Cl)[nH]c2ccccc12	13.3	17.1 µM		24.7 µM	7.37 µM	16.8	22.1	20.9 µM	14.4 µM	16.7 µM							
CC(NC(CC12CC3CC(CC(C3)C1)C2)C(N)=O)c1ccccc1 (centres undefined)	45.7	36.6 µM	98.5 µM	61.2 µM	28.4 µM	> 100	> 100	> 100 µM	48.1 µM								
COC(=O)c1sc2c(c1C(=O)OC)C(=Nc1ccc(OC)cc1)SC2=Nc1ccc(OC)cc1	3	2.79 µM	2.83 µM	5.84 µM	0.552 µM	2.24	3.01	3.02 µM	1.73 µM	1.94 µM							
C=CCCCCCCCCCOC1C=CC(O)C(CO)O1 (centres undefined)	36	63.7 µM	> 100 µM	> 100 µM	65.5 µM	59.1	> 100	> 100 µM	46.4 µM	> 100 µM							
Cc1n[nH]c(=O)c2c3c([nH]c12)-c1ccccc1C3	> 100	> 100 µM	> 100 µM	> 100 µM		> 100	> 100	> 100 µM	> 100 µM	> 100 µM							
CCc1nnc2sc(-c3ccc(-c4ccccc4[N+](=O)[O-])o3)nn12	> 100	> 100 µM	> 100 µM	> 100 µM	99.2 µM	> 100	> 100	> 100 µM	> 100 µM	> 100 µM							
COc1ccc(Cl)cc1NC(=O)O/N=C(\Cl)C(C)C	13	37.6 µM	34.1 µM	3.24 µM	> 24.5 µM	27.1	6.93	13.5 µM	43.8 µM	23.4 µM							
N#CC1=C(N)OC2=C(CCCc3ccc([N+](=O)[O-])cc32)C1c1ccc(Cl)cc1 (centres undefined)	49.8	15.7 µM	28.3 µM	> 100 µM	7.26 µM	> 100	> 100	71.7 µM	> 100 µM	6.78 µM							
N#CCCN(C(=O)Nc1ccc(NC(=O)N(CCC#N)c2ccccc2)cc1)c1ccccc1	> 100	> 100 µM	> 100 µM	> 100 µM	> 100 µM	> 100		> 100 µM	> 100 µM	> 100 µM							
CC(=O)OC1CCC2(C)C(CCC3C2CCC2(C)C(c4ccc(=O)oc4)C(OC(C)=O)CC32O)C1 (centres undefined)		0.0197 µM	0.0253 µM	0.0194 µM	0.114 µM	0.169		0.0279 µM	0.527 µM	0.503 µM							
C=CCN(C(C)=O)c1cc(OCc2ccccc2)c2c(c1)c(C)cn2S(=O)(=O)c1ccccc1	> 100	> 100 µM	> 100 µM	> 54.7 µM	> 100 µM	> 100	> 100	> 50.3 µM	> 100 µM	> 100 µM							
Cc1ccc([N+](=O)[O-])cc1S(=O)(=O)Nc1ccc(C2=NN(S(=O)(=O)c3cc([N+](=O)[O-])ccc3C)C(c3ccccc3O)C2)cc1 (centres undefined)	> 100	> 100 µM	> 100 µM	> 100 µM	> 100 µM	> 100	> 100	> 100 µM	> 100 µM	> 100 µM							
O=c1[nH]nc(-c2cccc([N+](=O)[O-])c2)[nH]1	> 100	> 100 µM	> 100 µM	> 100 µM	> 100 µM	> 100	> 100	> 100 µM	> 100 µM	> 100 µM							
CC(C)C1OC(=O)C(Cc2ccccc2)N(C)C(=O)C(C(C)C)OC(=O)C(Cc2ccccc2)N(C)C(=O)C(C(C)C)OC(=O)C(Cc2ccccc2)N(C)C1=O (centres undefined)	2.03	2.44 µM	1.18 µM	2.46 µM	1.21 µM	2.43	2.12	2.41 µM	2.07 µM	2.14 µM							
CCC(C)C(NC(=O)c1cccc2c(=O)c3ccccc3[nH]c12)C(=O)O (centres undefined)	> 100		> 100 µM			> 100	> 100	> 100 µM	> 100 µM	> 100 µM							
CC/C(CC(=O)CCC(=O)Nc1ccc(C)c(C)c1)=N\NC(=O)c1cc2ccccc2cc1O	42.5	> 100 µM	> 100 µM	> 100 µM	8.68 µM	57.5		88.3 µM	> 100 µM	> 100 µM							
Cc1c2ccncc2c(C)c2c1[nH]c1ccc(O)cc12		0.0467 µg/mL	0.303 µg/mL	0.0686 µg/mL	0.0548 µg/mL			0.273 µg/mL	1.23 µg/mL	0.0638 µg/mL	0.0157 (≈ 0.0598 µM)	0.148 µg/mL	0.0137 µg/mL	0.0921 µg/mL	0.185 µg/mL		
COc1ccc2nc(-c3ccc(N)cc3)sc2c1	> 100	> 100 µM	> 100 µM	> 100 µM	> 100 µM	> 100	> 100	> 100 µM	> 100 µM								
O=C1c2ccccc2CC12Cc1ccc3c(c1C2=O)CCCC3 (centres undefined)	> 100	> 100 µM	> 100 µM		> 100 µM	> 100	> 100	> 100 µM	> 100 µM	> 100 µM							
CC(=O)N(C(=O)CC(=O)N1N=C(C)C(N=Nc2cccc([N+](=O)[O-])c2)C1=O)c1ccc(Cl)cc1 (centres undefined)	> 10		> 10 µM	> 10 µM	> 10 µM	> 10	> 10		> 10 µM	> 10 µM							

SMILES	TGI (M14 melanoma) [µM]	TGI (NCI-H460 lung)	TGI (OVCAR-4 ovarian)	TGI (CAKI-1 renal)	TGI (HL-60(TB) leukemia)	TGI (IGROV1 ovarian) [µM]	TGI (TK-10 renal) [µM]	TGI (EKVX NSCLC)	TGI (HT29 colon)	TGI (SN12C renal)	GI50 (NCI-H460 lung) [µg/mL]	GI50 (OVCAR-4 ovarian)	GI50 (CAKI-1 renal)	GI50 (EKVX NSCLC)	GI50 (HT29 colon)	GI50 (HL-60(TB) leukemia) [µM]	GI50 (TK-10 renal) [µM]
CN1N=C(c2ccncc2)OC1c1ccc(C(F)(F)F)cc1 (centres undefined)	> 100	> 100 µM	> 100 µM		> 100 µM	> 100	> 100	> 100 µM	> 100 µM	> 100 µM							
CCCOC(=O)CCC(NC(=O)c1ccc(Nc2nc3ccccc3nc2-c2cccs2)cc1)C(=O)OCCC (centres undefined)			> 100 µM	> 100 µM		> 100	> 100	> 100 µM		> 100 µM							
COc1ccc(C(CC(=O)c2cccs2)C(=O)c2ccc3c(c2)OCO3)cc1 (centres undefined)	> 100	> 100 µM	> 100 µM	> 100 µM	> 100 µM	> 100	> 100	> 100 µM		> 100 µM							
O=C(NCC(O)COc1ccccc1)c1ccccc1O (centres undefined)	> 100		> 100 µM	> 100 µM		> 100	> 100	> 100 µM		> 100 µM							
O=C(O)c1ccccc1Sc1ccc(C=C2NC(=S)N(c3ccccc3)C2=O)s1		> 100 µM	59.8 µM	> 100 µM	82.1 µM	> 100	> 100	> 100 µM	> 100 µM	> 100 µM							
O=[N+]([O-])c1ccc(CSC2=C(c3ccc(Cl)cc3)S/C(=C3\SC(SCc4ccc([N+](=O)[O-])cc4)=C(c4ccc(Cl)cc4)S3)S2)cc1	> 100	> 100 µM	> 100 µM	> 100 µM		> 100	> 100	> 100 µM	> 100 µM	> 100 µM							
CCOC(=O)CN(CC)C(=O)NC12CC3CC(CC(C3)C1)C2		558 µM	568 µM	483 µM	348 µM	> 750		> 422 µM	425 µM	> 750 µM							
CN(C)CCCn1c(-c2ccc(Br)cc2)csc1=Nc1ccccc1	32.9	39.4 µM	38 µM	41 µM	> 100 µM		31.7	23.8 µM		70.9 µM							
C=CC[PH+](c1ccccc1)c1ccccc1.C=CC[PH+](c1ccccc1)c1ccccc1.[Pt+2].[S-]c1nc2ccccc2[nH]1.[S-]c1nc2ccccc2[nH]1			> 100 µM	12.8 µM	7.32 µM		67.4	> 100 µM	> 100 µM			2.56 µM	2.54 µM	2.36 µM	2.62 µM	2.51	3.29
Cc1cc2nc3c(N)nn(CCCN(C)C)c3nc2cc1C	> 100	> 100 µM	> 100 µM	> 100 µM			> 100	> 100 µM	> 100 µM	> 100 µM							
C(/C=C(\Nc1ccccc1)c1ccc2ccccc2c1)=Nc1ccccc1	6.14	11.9 µM	14.5 µM	7.22 µM	11.8 µM	13.7	4.47			5.15 µM							
C[N+]1(CC[N+]2(C)CCCC2c2cccnc2)CCCC1c1cccnc1 (centres undefined)	> 100	> 100 µM	> 100 µM	> 100 µM		> 100	> 100	86.9 µM	> 100 µM	> 100 µM							
CCCCCCCC(=O)NC(C)(C)C(=O)NCC(=O)NC(CC(C)C)C(=O)NC(C)(C)C(=O)NCC(=O)NCC(=O)NC(CC(C)C)C(=O)NC(C)(C)C(=O)NCC(=O)NC(C(=O)NC(CO)CC(C)C)C(C)CC (centres undefined)	7.62	8.11 µM	7.9 µM	8.07 µM		7.17	8.17	6.91 µM	7.42 µM	7.7 µM							
O=C1C=C2SC3C[C@@]24CC1(O)[N+]1=c2c4c(c(O)c4c2=C(C=N4)CC1)N3		4.26 µM	2.53 µM	4 µM	0.534 µM	2.98		40.9 µM	1.01 µM	2 µM							
C#C[C@]1(O)CC[C@H]2[C@@H]3CCC4=C/C(=N/OC(=O)c5cccc6cc7ccccc7nc56)CC[C@@H]4[C@H]3CC[C@@]21CC	> 100	> 100 µM	> 100 µM	> 100 µM	> 100 µM	> 100			> 100 µM	> 100 µM							
CSC(SC)=C(C#N)C(=O)Nc1ccc(Cl)cc1	> 100	> 100 µM	> 100 µM	78.9 µM	69.3 µM		72.6	> 100 µM	> 100 µM	> 100 µM							
c1ccc(-c2cc(-c3ccccc3)nc(-c3ccncc3)c2)cc1	> 100		> 100 µM	> 100 µM	> 100 µM	> 100	> 100	> 100 µM		> 100 µM							
NC1=Nc2ncccc2C(=O)NN1	> 10	> 10 µM			> 10 µM	> 10	> 10	> 10 µM	> 10 µM	> 10 µM							
COc1cccc(C2c3cc4c(cc3OC(NNS(=O)(=O)c3ccc(C)cc3)C2C)OCO4)c1O (centres undefined)	> 100	82 µM		> 100 µM	38.2 µM	> 100	95.2	> 100 µM	47.1 µM	> 100 µM							
O=S(c1ccc(O)cc1)c1ccc(O)cc1	> 100	> 100 µM	> 100 µM	> 100 µM	> 100 µM	> 100	> 100	> 100 µM	> 100 µM								
O=C(O)COc1c(Cl)cc(Cl)c(C(c2c(Cl)cc(Cl)c(OCC(=O)O)c2Cl)C(Cl)(Cl)Cl)c1Cl	46.8	89.7 µM	> 100 µM	> 100 µM	59.9 µM	> 100	95.8		92.6 µM	> 100 µM							
CCN(CC)C(=O)N[C@@H](CC(C)C)C(=O)NC	> 100	> 100 µM	> 100 µM	> 100 µM	> 100 µM	> 100		> 100 µM	> 100 µM	> 100 µM							
